Measurements published in patent EP0685467A1, “NOVEL PYRIMIDINE DERIVATIVE AND MEDICINAL COMPOSITION” (NKK CORPORATION, priority 1993, dated 1995).

Assays:
rat aorta = experiment: Inhibitory activity of vasoconstriction: angiotensin II induced constriction of rat aorta rings (Magnus apparatus); assay type: cell-based; conditions: constriction induced by 3 x 10⁻⁸ angiotensin II
Method: The applicability of the compound of the present invention was confirmed by the function to inhibit constriction of rat aorta induced by angiotensin II.
Stetharteries of Wistar male rats having body weights of 150 to 250 g (Japan Charles River Inc.) were excised. After the attached connective tissue was removed, the cavities of the veins were rubbed by yarn to remove the endothelial cells and prepare ring samples. The samples were suspended in a 5ml organ bath which was filled with Krebs-Henseleit solution (unit mM; NaCl = 118, KCl = 4.7, CaCl₂ = 2.55, MgSO₄ = 1.18, KH₂PO₄ = 1.18, NaHCO₃ = 24.88, glucose = 11.1) and held at 37°C and bubbled with 95% O₂-5% CO₂. After an initial tension of 1.5 g was applied and preincubation was carried out for 60 minutes, the compounds to be tested (3 x 10⁻⁸ or 1 x 10⁻⁸) were administered. After 15 minutes, 3 x 10⁻⁸ angiotensin II was accumulatively added and the reaction of constriction was measured. The rate of inhibition was evaluated by comparing the reaction of constriction, which had been previously measured, in the case of administration of 3 x 10⁻⁸ angiotensin II in the absence of the compounds to be tested.
The constriction of the samples was ionotropicaly measured using an isometric transducer (UL-10GR: Minebea) and amplifier (6M92: NEC SANEI) and recorded by a recticorder (RECTI-HORIZ-8K: NEC SANEI).

ICR male mice = experiment: Toxicity Example: intraperitoneal administration to mice; assay type: in vivo; conditions: intraperitoneally, 500 mg/kg, 4- to 5-week-old ICR male mice
Method: The compounds of Examples 3, 19, 20, or 23 were intraperitoneally administered to 4- to 5-week-old ICR male mice in an amount of 500 mg/kg.

ICR male and female mice = experiment: Toxicity Example: oral administration to mice; assay type: in vivo; conditions: orally, 1000 mg/kg, 6-week-old ICR male and female mice
Method: The compounds of Examples 15, 19, or 47 were orally administered to 6-week-old ICR male and female mice in an amount of 1000 mg/kg.

Row | SMILES | Rate of inhibition (%) (rat aorta; compound 1 x 10⁻⁸ M) | Rate of inhibition (%) (rat aorta; compound 3 x 10⁻⁸ M) | deaths (ICR male mice) | deaths (ICR male and female mice)
1 | CCCCc1nc(C)cc(=O)n1Cc1ccc(-c2ccccc2-c2nnn[nH]2)cc1 [Comparative compound A, 2-butyl-6-methyl-3-[2'-(1H-tetrazol-5-yl)biphenyl-4-yl]methylpyrimidin-4-one, reference compound] | 8 | 37 | – | –
2 | CCCCc1nc(C)c(Cc2ccccc2)c(=O)n1Cc1ccc(-c2ccccc2-c2nnn[nH]2)cc1 [Comparative compound B, 5-benzyl-2-butyl-6-methyl-3-[2'-(1H-tetrazol-5-yl)biphenyl-4-yl]methylpyrimidin-4-one, reference compound] | 5 | 32 | – | –
3 | CCCc1nc(C)c(Cc2ccc(CO)cc2)c(=O)n1Cc1ccc(-c2ccccc2-c2nnn[nH]2)cc1 [Example 3, 5-(4-hydroxymethylbenzyl)-6-methyl-2-propyl-3-[2'-(1H-tetrazol-5-yl)biphenyl-4-yl]methylpyrimidin-4-one] | 78 | 98 | No deaths were observed | –
4 | CCCc1nc(C)c(Cc2ccc(COC)cc2)c(=O)n1Cc1ccc(-c2ccccc2-c2nnn[nH]2)cc1 [Example 4, 5-(4-methoxymethylbenzyl)-6-methyl-2-propyl-3-[2'-(1H-tetrazol-5-yl)biphenyl-4-yl]methylpyrimidin-4-one] | 36 | 94 | – | –
5 | CCc1nc(C)c(Cc2cccc(CO)c2)c(OCc2ccc(-c3ccccc3-c3nnn[nH]3)cc2)n1 [Example 15, 2-ethyl-5-(3-hydroxymethylbenzyl)-6-methyl-4-[2'-(1H-tetrazol-5-yl)biphenyl-4-yl]methoxypyrimidine] | – | – | – | No deaths were observed
6 | CCCc1nc(C)c(Cc2cccc(CO)c2)c(=O)n1Cc1ccc(-c2ccccc2-c2nnn[nH]2)cc1 [Example 19, 5-(3-hydroxymethylbenzyl)-6-methyl-2-propyl-3-[2'-(1H-tetrazol-5-yl)biphenyl-4-yl]methylpyrimidin-4-one] | 100 | 100 | No deaths were observed | No deaths were observed
7 | CCCc1nc(C)c(Cc2cccc(COC)c2)c(=O)n1Cc1ccc(-c2ccccc2-c2nnn[nH]2)cc1 [Example 20, 5-(3-methoxymethylbenzyl)-6-methyl-2-propyl-3-[2'-(1H-tetrazol-5-yl)biphenyl-4-yl]methylpyrimidin-4-one] | 100 | 100 | No deaths were observed | –
8 | CCCCc1nc(C)c(Cc2cccc(CO)c2)c(=O)n1Cc1ccc(-c2ccccc2-c2nnn[nH]2)cc1 [Example 23, 2-butyl-5-(3-hydroxymethylbenzyl)-6-methyl-3-[2'-(1H-tetrazol-5-yl)biphenyl-4-yl]methylpyrimidin-4-one] | 95 | 100 | No deaths were observed | –
9 | CCc1nc(C)nc(OCc2ccc(-c3ccccc3-c3nnn[nH]3)cc2)c1Cc1cccc(CO)c1 [Example 47, 6-ethyl-5-(3-hydroxymethylbenzyl)-2-methyl-4-[2'-(1H-tetrazol-5-yl)biphenyl-4-yl]methoxypyrimidine] | – | – | – | No deaths were observed
